Bounds are passed on as bounds.

The test system of one assay is MOG-induced EAE mice. The assay can be described thus: MOG-induced EAE in mice, clinical score. It is filed as in vivo. How it is done: 8-10 week old, male C57BL/6 mice were purchased from Janvier Lab (St Berthevin, France) and housed in a specific pathogen free (SPF) animal facility for one week before the start of the studies. Peptide antigen MOG35-55 (Myelin Oligodendrocyte Glycoprotein) ([…], SEQ ID NO:1, Polypeptide group, France) was dissolved in PBS and emulsified with an equal volume of Complete Freund's Adjuvant (CFA) containing 5 mg/mL of mycobacteria and administrated by subcutaneous injection at the dorsal flanks on day 0 at 200 μg/mouse. To ensure induction of reliable EAE, 200 ng of Bordetella pertussis toxin (Sigma) was given via intraperitoneal injection at day 0 and 2 (Cua, Sherlock et al. 2003; Zhang, Gran et al. 2003). Animals were treated with drug beginning 2 days before peptide injection. Animals were randomized into groups for treatment by weight, so that the average weight of each group was similar. The groups were segregated by cage. Compounds according to the invention were suspended in Carboxymethyl Cellulose (CMC) 1% (Sigma) and Tween80 0.1% (Sigma) by sonication and animals were dosed daily by gavage with 10 mL/kg body weight. The daily dose of Cpd. 1 was 30 mg/kg and vidofludimus (reference compound) at 60 mg/kg in protocol 1 to assess IL-17 A and IL-17F secretion from splenocytes ex vivo. In protocol 2, mice were treated with Cpd. 1 at 3 and 10 mg/Kg or T4 compound at 1 and 10 mg/kg daily by gavage to assess the clinical score. Clinical assessment of EAE was performed daily according to the following criteria: 0) no disease, 1) limp tail, 2) weak/partially paralyzed hind legs, 3) completely paralyzed hind legs, 4) complete hind and partial front leg paralysis, and 5) complete paralysis/death. For Cytokine quantifications, mice were euthanized 20 days after EAE induction. Spleen-isolated cells were collected and adjusted to 2×10^6 cells/mL. Cells were cultured in complete RPMI medium (RPMI supplemented with 10% of fetal calf serum, 1% glutamine, and 1% penicillin/streptomycin). Spleen cells were stimulated with MOG (20 μg/mL) (Polypeptide group, France). Cytokine levels were evaluated 48 h later by ELISA (R&D Systems Europe) or HTRF (CisBio, France) in culture supernatants using IL-17A and IL-17-F according to the manufacturer's protocols. The statistical significance was based on Student's t test (p<0.05, unpaired test).

Another assay concerns the target T1, human RORγt (Homo sapiens, UniProt P51449).
T1 sequence (P51449 1-497 isoform P51449-2): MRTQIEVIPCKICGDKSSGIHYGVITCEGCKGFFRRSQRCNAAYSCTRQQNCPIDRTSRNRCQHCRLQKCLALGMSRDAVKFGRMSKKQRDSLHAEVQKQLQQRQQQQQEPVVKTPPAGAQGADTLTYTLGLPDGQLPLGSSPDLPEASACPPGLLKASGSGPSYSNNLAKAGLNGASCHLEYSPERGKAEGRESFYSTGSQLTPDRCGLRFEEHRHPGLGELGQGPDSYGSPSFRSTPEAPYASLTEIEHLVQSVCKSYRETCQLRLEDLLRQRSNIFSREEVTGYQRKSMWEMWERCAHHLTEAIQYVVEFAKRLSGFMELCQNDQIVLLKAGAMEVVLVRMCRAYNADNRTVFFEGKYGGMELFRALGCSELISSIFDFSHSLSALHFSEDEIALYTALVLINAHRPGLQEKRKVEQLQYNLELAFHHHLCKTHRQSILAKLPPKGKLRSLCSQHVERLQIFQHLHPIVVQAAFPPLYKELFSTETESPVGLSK
The assay can be described thus: RORE luciferase/RORγt transactivation assay. It is filed as cell-based. Also on record: expressed in transfected cells. Particulars: COS-7 cells transfected with IL-17 promoter luciferase reporter and RORγt plasmid, 20 h. An excerpt: It is well known that RORγ binds to a conserved non-coding sequence (CNS) enhancer element in the IL-17 promoter. Accordingly, we have used in this assay a luciferase reporter gene construct that contains the human IL-17 promoter fragment with RORγ-specific CNS enhancer element and a RORγt overexpressing plasmid, to indirectly assess the effect of compounds on RORγ activity. Inhibition of RORγ activity by test compounds will result in a decrease in luciferase activity in COS-7 cells transfected with the reporter construct.
Monkey Kidney COS-7 cell line are maintained in a standard culture medium Dulbecco's modified Eagle's minimal (DMEM) medium supplemented with 10% fetal calf serum, 1% sodium pyruvate, 1% essential amino acids and 1% antibiotics at 37° C. in a humidified atmosphere of 5% CO2 and 95% air. Culture medium was changed every 2 days.
The 4.3 Kb human IL-17 promoter containing the RORγ-specific CNS enhancer element was PCR amplified from human genomic DNA and cloned into a pGL3-TKLuc2Cp reporter plasmid. To overexpress RORγt, the full-length cDNA of human RORγt (identical to published sequence NM 001001523) was cloned without any restriction into pcdna3.1DV5-His-topo to generate the RORγt overexpression plasmid “RORγt_FL_h_pcDNA3.1DV5-His-TOPO_1”.
The luciferase reporter plasmid and the RORγt overexpression plasmid were transfected into COS-7 cell line using 4 μLJetPEITM/μg of DNA. Briefly, 150 ng of DNA (ration ½ between RORE-Tk Luc2Cp and cDNA RORγt or the empty vector for the negative control) was served to transfect adherent COS-7 cells in a […] culture flask, in complete medium (see cos-7 cell line culture). Cells were incubated for 24 hours in a humidified atmosphere of 5% CO2 and 95% air
Cells were then detached (using trypsin) and washed by centrifugation at 300 g for 10 minutes. Cell pellet was resuspended in serum free/phenol red free DMEM and seeded in 384 well plates at a density of 10000 cells/well and then incubated for 4 h at 37° C.
Compounds were dissolved in 100% DMSO to obtain 10 mM stock solutions. For each compound, test concentrations were diluted in serum free/phenol red free DMEM using the Genesis Freedom 200™ (TECAN) and added to the cells to obtain a 0.3% DMSO final concentration (in a final volume of 40 μL per well). T091317 was used as reference compound. Cells were incubated in presence of compounds for an additional 20 h at 37° C. in a humidified atmosphere of 5% CO2 and 95% air
The luciferase activity was then measured with 40 μL/well steady-Glo Luciferase assay system (Promega, Madison, Wis.) and after incubation at room temperature for 30 minutes. The luminescence was estimated using the Ultra384 reader (TECAN). Data were collected and analyzed using GraphPad Prism software (GraphPad Software V5.02, San Diego Calif. USA). IC50 in μM and Emax in % were reported for each compound.
In general terms: In a reporter assay the amount or activity of a reporter protein is the signal.

Turning to `O=C(O)CCc1c[nH]c2ccc(CC(=O)NC(c3ccccc3)c3ccccc3N3CCCCC3)cc12` (stereo not drawn) [Cpd. 1, 3-{5-[({phenyl[2-(piperidin-1-yl)phenyl]methyl}carbamoyl)methyl]-1H-indol-3-yl}propanoic acid], in the assay on MOG-induced EAE mice (administered p/os (orally) for 20 days), the “onset of EAE” value is “able to delay the onset of EAE”. In addition, in the assay on MOG-induced EAE mice (daily by gavage, Cpd. 1 at 3 and 10 mg/Kg, T4 compound at 1 and 10 mg/kg), the EAE clinical score result is on record as “improvement was apparent”. Also, the IC50 – broadly, the concentration needed to halve the response being measured – at human RORγt was less than 1000 nM.
Turning to `O=C(O)CCc1c[nH]c2ccc(CC(=O)NC(c3cccc(F)c3)c3ccccc3N3CCCCC3)cc12` (stereo not drawn) [Cpd. 3, 3-[5-({[(3-fluorophenyl)[2-(piperidin-1-yl)phenyl]methyl]carbamoyl}methyl)-1H-indol-3-yl]propanoic acid], the IC50 against human RORγt is less than 1000 nM.
On the same count and under the same terms, in the case of `Cc1ccc(C(NC(=O)Cc2ccc3[nH]cc(CCC(=O)O)c3c2)c2ccccc2)c(N2CCCC2)c1` (stereo not drawn) [Cpd. 5, 3-{5-[({[4-methyl-2-(pyrrolidin-1-yl)phenyl](phenyl)methyl}carbamoyl)methyl]-1H-indol-3-yl}propanoic acid] it was less than 1000 nM; in that of `CC(C)CC(NC(=O)Cc1ccc2[nH]cc(CCC(=O)O)c2c1)c1ccccc1N1CCCCC1` (stereo not drawn) [Cpd. 29, 3-{5-[({3-methyl-1-[2-(piperidin-1-yl)phenyl]butyl}carbamoyl)methyl]-1H-indol-3-yl}propanoic acid], less than 1000 nM.
